Like-named read-outs stand apart in the source and are kept apart here.
Assays:
[1] = cited from earlier work
[2] = cited from earlier work; remark: listed apart in the source
[3] = cited from earlier work; remark: listed apart in the source
[4] = cited from earlier work; remark: listed apart in the source
[5] = cited from earlier work; remark: listed apart in the source
[6] = cited from earlier work; remark: listed apart in the source
[7] = tested on: CLas bacteria; type: in vivo, Ruby red grapefruit trees
Protocol: (§1) Experimental testing was performed at the Florida Research Center for Agricultural Sustainability (“FLARES”) in Vero Beach, Fla. where the inventor, Robert C. Adair, Jr. serves as the executive director after having founded FLARES in 2004. Testing was conducted on a uniform block of ninety-six (96) Ruby red grapefruit trees planted on Dec. 19, 2018 grafted with USDA “US-897” citrus rootstock. The red grapefruit trees were randomly assigned one of eight (8) treatments in twelve (12) replicated plots using a Randomized Complete Block (“RCB”) design to help ensure homogeneous conditions between test subject trees. The red grapefruit trees were treated using liquid formulations applied to the foliage, the soil proximal to the rhizosphere of the plant, or applied to both the foliage and the soil. The micronutrient chelate formulations were applied monthly, the citric acid treatments were applied weekly, and the iron nitrate treatment was applied every two weeks.
(§2) Before being treated, the red grapefruit trees were allowed time to establish root systems. The red grapefruit trees were exposed to infection of the CLas bacteria through native populations of the Asian citrus psyllid insect, which is the vector that spreads citrus greening disease among trees. The caliper, canopy diameter, and height for each grapefruit tree was measured prior to treatment and subsequently measured every six (6) to nine (9) months thereafter for the two-and-half (2.5) year duration of the experiment.
Individual leaf samples were collected from each of the ninety-six (96) trees and submitted to Southern Gardens Diagnostic Laboratory in Clewiston, Fla. for Polymerase Chain Reaction (“PCR”) analysis to determine the presence of CLas bacteria DNA. The results were expressed cycle threshold (“Ct”) values, and the logarithm of the copy number per milligram of tissue values were recorded and statistically evaluated. In a PCR analysis, a positive reaction is detected by the accumulation of a fluorescent signal. The Ct value is defined as the number of cycles required for a fluorescent signal to cross a threshold (i.e., exceeds background levels). Ct values are inversely proportional to the amount of a target nucleic acid in the sample being tested such that the lower the Ct level, the greater the amount of target nucleic acid in the sample. Ct values less than 29 are considered strong positive reactions indicative of an abundance of the target nucleic acid, and Ct values of 38-40 are indicative of minimal amounts of target nucleic acid.

[8] = tested on: Ruby red grapefruit trees; experiment: Tree growth versus untreated control, field trial; settings: in vivo
Protocol: as §1
Before being treated, the red grapefruit trees were allowed time to establish root systems. […] The caliper, canopy diameter, and height for each grapefruit tree was measured prior to treatment and subsequently measured every six (6) to nine (9) months thereafter for the two-and-half (2.5) year duration of the experiment.
Canopy areas were determined from aerial images captured by a camera-equipped unmanned aerial vehicle (“UAV”). […]

[9] = tested on: citrus greening disease; type: in vivo, Ruby red grapefruit trees; settings: for Percentage of Trees Showing HLB Leaf Patterns: 270 days after the first treatment application
Protocol: as §1, §2
Tree condition was scored visually according to the disease indexing (“DI”) technique taught by Gottwald, Aubert, and Xue-Yuan. See Gottwald, T. R., B. Aubert, and Z. Xue-Yuan, Preliminary Analysis of Citrus Greening (Huanglungbin) Epidemics in the People's Republic of China and French Reunion Island, PHYTOPATHOLOGY Vol. No. 79: 687-693 (1989). Disease indexing techniques divide an image of a plant into multiple sections and/or subsections, such as hemispheres and quadrants, and assign each image section a score from zero to four. The score reflects the observable severity of disease impact on a plant with a score of four indicating a plant with no visible symptoms and a score of zero indicating the highest level of severity. The score for all sections of a plant image are added together to establish an overall DI score for a particular plant image, such that a healthy vigorous tree with no symptoms has a DI of 16.
Table 5 below presents data from the visual inspection of the red grapefruit trees for the symptoms of citrus greening disease measured at 270 days after the first treatment application or approximately half way through the experiment.

[10] = treatments applied as in Table 1 (foliar and/or soil)
[11] = treatments applied as in Table 1 (foliar and/or soil), listed as Fe(III)EDDHA

| Compound | LogK Zn2+ (stability constant) [1] | LogK Fe2+ (stability constant) [2] | LogK Fe3+ (stability constant) [3] | LogK Cu2+ (stability constant) [4] | LogK Ca2+ (stability constant) [5] | LogK Mn2+ (stability constant) [6] | further results |
| --- | --- | --- | --- | --- | --- | --- | --- |
| O=C(O)CC(O)(CC(=O)O)C(=O)O [Citrate] | 4.9 | 3.2 | 11.85 | 5.9 | 4.7 | 3.7 |  |
| O=C(O)CN(CCN(CC(=O)O)CC(=O)O)CCN(CC(=O)O)CC(=O)O [DTPA, diethylenetriaminepentaacetic acid] | 18.3 | 16.5 | 28.6 | 21.1 | 10.7 | 15.1 |  |
| O=C(O)CN(CCN(CC(=O)O)CC(=O)O)CC(=O)O [EDTA] | 16.5 |  | 25.1 | 18.8 | 10.7 | 13.6 |  |
| O=C([O-])C(NCCNC(C(=O)[O-])c1ccccc1[O-])c1ccccc1[O-].[Fe+3].[Na+] (centres unmarked) [Fe-EDDHA] |  |  | 35.40 |  |  |  | % of PCR Analysis Showing No CLas (Ct values = 40) [7, 10]: 50%; Average Ct values based on qPCR analysis of citrus leaves [7, 10]: 34.9; Log Copy #/1 mg of Leaf Tissue [7, 10]: 1.2; % of PCR Analysis Showing No CLas (Ct values = 40) [7, 11]: highest percentage; Average Ct values based on qPCR analysis of citrus leaves [7, 11]: highest Ct values; Log Copy #/1 mg of Leaf Tissue [7, 11]: the lowest; tree growth versus an untreated control [8]: increased tree growth; Percentage of Trees Showing HLB Leaf Patterns ([9]; treatments as in Table 1): 10%; Percentage of Trees Showing HLB Leaf Patterns ([9]; treatments as in Table 1, listed as Fe(III)EDDHA): lowest percentage of observable symptoms; symptoms of citrus greening disease, visually and analytically (CLas bacteria by PCR) ([9]; foliar and soil application): reduced the symptoms of citrus greening disease; citrus greening disease leaf symptoms, visual inspection ([9]; infected grapefruit trees): reduced |
| O=C(O)[C@H](O)[C@@H](O)[C@H](O)[C@H](O)CO [Gluconate] | 1.7? | 1.0 | 10.0 | 36.0 | 1.2 |  |  |
| O=C(O)CN(CCN(CC(=O)O)Cc1ccccc1O)Cc1ccccc1O [HBED, N,N′-bis(2-hydroxyphenyl)ethylenediamine-N,N′-diacetic acid] | 18.3 | 17.3 | 39.0 | 21.4 | 9.3 | 16.5 |  |
| O=C(O)CN(CCO)CCN(CC(=O)O)CC(=O)O [HEDTA] | 14.6 | 12.2 | 19.7 | 17.4 | 8.1 | 11.1 |  |
| O=C(O)CN(CCO)CCN(CC(=O)O)CC(=O)O [HEEDTA] | 14.5 | 12.2 | 19.6 | 17.4 | 8.0 | 10.7 |  |
| O=C(O)CC(NC(CC(=O)O)C(=O)O)C(=O)O (centres unmarked) [IDHA, imidodisuccinic acid] | 10.8 |  | 15.2 | 13.1 |  | 7.7 |  |
| O=C(O)[C@@H](O)[C@@H](O)[C@H](O)[C@@H](O)C(=O)O [Saccharate] |  |  | 24.5 | 14.0 |  | 8.5 |  |
| Iron Citrate |  | 3.2 |  |  |  |  | % of PCR Analysis Showing No CLas (Ct values = 40) ([7]; at 30 ppm Fe, foliar): 0%; Average Ct values based on qPCR analysis of citrus leaves ([7]; at 30 ppm Fe, foliar): 29.7; Log Copy #/1 mg of Leaf Tissue ([7]; at 30 ppm Fe, foliar): 2.6; % of PCR Analysis Showing No CLas (Ct values = 40) ([7]; at 60 ppm Fe, foliar): 0%; Average Ct values based on qPCR analysis of citrus leaves ([7]; at 60 ppm Fe, foliar): 31.2; Log Copy #/1 mg of Leaf Tissue ([7]; at 60 ppm Fe, foliar): 2.1; Percentage of Trees Showing HLB Leaf Patterns ([9]; at 30 ppm Fe, foliar): 44%; Percentage of Trees Showing HLB Leaf Patterns ([9]; at 60 ppm Fe, foliar): 50% |

— US20220394981A1, “MICRONUTRIENT FORMULATIONS THAT CONTROL PLANT PATHOGENS” (priority 2021, published 2022)
